Measured values from patent publication US20070048782A1, “Methods for assessing and treating leukemia” (priority 2001, published 2007).

Assays:
U-937 cells = assay: Toxic dose assay, viable cell count by trypan blue exclusion at day seven; format: cell-based; details: seven days of treatment, duplicate runs, read-out: IC50 (dose at which the number of viable cells in the treated sample was 50% of that in the control at day seven)
Method: (§1) The AML-like cell lines HL-60 (promyelocytic) and U-937 (promonocytic) were obtained from the ATCC. AML-193 (monocytic) and THP-1 (monocytic) cells were obtained from the RW Johnson Pharmaceutical Research Center, San Diego. Cells were grown in Roswell Park Memorial Institute medium (RPMI) with 20% Fetal Bovine Serum (FBS). AML-193 was also supplemented with granulocyte-macrophage colony-stimulating factor (GM-CSF) (10 ng/ml), insulin (0.005 mg/ml), and transferrin (0.005 mg/ml).
(§2) The cells of Example 1 were inoculated into 6-well plates at an initial concentration of 1×10^5 cells/ml. (B)-6-[amino(4-chlorophenyl)(1-methyl-1H-imidazol-5-yl)methyl]-4-(3-chlorophenyl)-1-methyl-2(1H)-quinolinone) was added at concentrations ranging form 0.5 to 500 nM in 3 μl of DMSO directly to the culture medium. Control cells from Example 1 were grown in medium alone or in medium supplemented with vehicle (0.1% DMSO). Cell numbers were counted at days four and seven in a hemocytometer and cell viability was determined by trypan blue exclusion assay. The IC50 was defined as the dose at which the number of viable cells in the treated sample was 50% of that in the control at day seven. Calculations were made based on duplicate runs of the experiment. The IC50 of the four cell lines was calculated after seven days of treatment with the FTI.

HL-60 cells = assay: as above; format: cell-based; details: seven days of treatment, duplicate runs, read-out: IC50 (dose at which the number of viable cells in the treated sample was 50% of that in the control at day seven)
Method: as §1, §2

AML-193 cells = assay: as above; format: cell-based; details: seven days of treatment, duplicate runs, read-out: IC50 (dose at which the number of viable cells in the treated sample was 50% of that in the control at day seven)
Method: as §1, §2

THP-1 cells = assay: as above; format: cell-based; details: seven days of treatment, duplicate runs, read-out: IC50 (dose at which the number of viable cells in the treated sample was 50% of that in the control at day seven)
Method: as §1, §2

[1] = tested on: blast cells in bone marrow; assay: Clinical response of AML patients treated with FTI (blast cells in bone marrow aspirates); format: in vivo; details: 600 mg twice daily over a 21 day period
Description: The therapeutic agents referred to in this specification are FTIs. They take on a multitude of forms but share the essential inhibitory function of interfering with or lessening the farnesylation of proteins implicated in cancer and proliferative diseases. Preferably, the FTIs are those indicated for the treatment of leukemias such as AML. A patient who responds to an FTI is one in whom a reduction of more than 50% of blast cells is seen in bone marrow following treatment with the FTI.
Bone marrow aspirates were obtained from two patients diagnosed with AML who had been treated with FTI. These AML patients were administered 600 mg (B)-6-[amino(4-chlorophenyl)(1-methyl-1H-imidazol-5-yl)methyl]-4-(3-chlorophenyl)-1-methyl-2(1H)-quinolinone) twice daily over a 21 day period. Bone marrow aspirates were taken at baseline and once a week for the three weeks of treatment. […] Response was determined as a reduction of more than 50% of blast cells in bone marrow aspirates. The aspirates were diluted to 15 ml with PBS and Ficoll-density centrifuged. White blood cells were washed twice with PBS, resuspended in FBS with 10% DMSO and immediately frozen at −80° C. Cells were cryogenically preserved to maintain cell viability. Samples were thawed at 37° C. and 10× volume of RPMI with 20% FBS was added drop-wise over a period of 5 min. […] Cell viability was determined by Trypan Blue assay. […]

[2] = tested on: AML-like cell lines (AML-193, HL-60, THP-1, U-937); assay: Time course assay with cDNA microarray gene expression profiling of treated AML-like cell lines; format: cell-based; details: 100 nM
Method: Duplicate cultures of the cells of Example 1 were inoculated into 6-well plates at an initial concentration of 1×10^5 cells/ml. (B)-6-[amino(4-chlorophenyl)(1-methyl-1H-imidazol-5-yl)methyl]-4-(3-chlorophenyl)-1-methyl-2(1H)-quinolinone) was supplemented at a concentration of 100 nM in 3 μl of DMSO directly to the culture medium. The concentration of 100 nM was chosen for the subsequent time course experiments to normalize the treatment protocol based, in part, on the results of Example 2. Duplicate control cultures were grown in medium containing 0.1% DMSO. Duplicate cultures were harvested daily for a total of six days. Cells were counted, assayed for viability, and total RNA isolated according to the manufacturer's protocol (Qiagen RNeasy). […] RNA was treated with DNase1 (Qiagen DNase1 kit) to remove any residual genomic DNA. Linear amplification of RNA was conducted according to the procedure described in U.S. Pat. No. 5,545,522 to Van Gelder et. al. Aliquots of 5 μg of aRNA were then prepared for hybridization to cDNA arrays. […]
The arrays contained 7452 cDNAs from the IMAGE consortium (Integrated Molecular Analysis of Genome and their Expression: Research Genetics, Huntsville, Ala.) and Incyte libraries. […] The fluorescence intensity for each spot was analyzed with AUTOGENE software (Biodiscovery, Los Angeles). […]

## Cn1cncc1[C@@](N)(c1ccc(Cl)cc1)c1ccc2c(c1)c(-c1cccc(Cl)c1)cc(=O)n2C [(B)-6-[amino(4-chlorophenyl)(1-methyl-1H-imidazol-5-yl)methyl]-4-(3-chlorophenyl)-1-methyl-2(1H)-quinolinone)]
U-937 cells
  IC50: 0.044 µM
HL-60 cells
  IC50: 0.024 µM
AML-193 cells
  IC50: 0.134 µM
THP-1 cells
  IC50: 0.019 µM
[1]; AML patient one
  Response (reduction of more than 50% of blast cells in bone marrow aspirates): responded
[1]; AML patient two
  Response (reduction of more than 50% of blast cells in bone marrow aspirates): did not respond
[2]
  Overall change in gene expression, treated versus control samples from the same day (scatter-plot correlation): no gross changes in gene expression
